In patent publication EP0044212B1, “Herbicidal o-alkylsulfonyloxy- and o-alkylsulfonylamino-benzenesulfonamides” (E.I. DU PONT DE NEMOURS AND COMPANY, priority 1980, dated 1982):

Assays:
Giant Foxtail [1] = assay: Test B pre-emergence on Fallsington silt loam; type: in vivo, Setaria faberii; settings: 0.12 kg/ha, 28 days
Description: (§1) Two plastic bulb pans were filled with fertilized and limed Fallsington silt loam soil. One pan was planted with corn, sorghum, Kentucky bluegrass and several grassy weeds. The other pan was planted with cotton, soybeans, purple nutsedge (Cyperus rotundus), and several broadleaf weeds. The following grassy and broadleaf weeds were planted: crabgrass (Digitaria sanguinalis), barnyardgrass (Echinochloa crusgalli), wild oats (Avena fatua), johnsongrass (Sorghum halepense), dallisgrass (Paspalum dilatatum), giant foxtail (Setaria faberii), cheatgrass (Bromus secalinus), mustard (Brassica arvensis), cocklebur (Xanthium pensylvanicum), pigweed (Amaranthus retroflexus), morningglory (Ipomoea hederacea), cassia (Cassia tora), teaweed (Sida spinosa), velvetleaf (Abutilon theophrasti), and jimsonweed (Datura stramonium). A 12.5 cm diameter plastic pot was also filed with prepared soil and planted with rice and wheat. Another 12.5 cm pot was planted with sugarbeets. The above four containers were treated pre- emergence with several test compounds within the scope of the invention.
(§2) Twenty-eight days after treatment, the plants were evaluated and visually rated for response to the chemical treatments utilizing the rating system described previously for Test A. The data are summarized in Table B.

Jimsonweed = assay: Test F over-the-top soil/foliage treatment; type: in vivo, Datura stramonium; settings: soil/foliage spray; 0.06 kg/ha; ~14 days
Protocol: (§3) The test chemicals, dissolved in a non-phytotoxic solvent, were applied in an overall spray to the foliage and surrounding […] of selected plant species. […] Approximately fourteen days after treatment, all species were visually compared to untreated controls and rated for response to treatment.
(§4) All plant species were seeded in Woodstown sandy loam soil and grown in a greenhouse. The following species were grown in soil contained in plastic pots (25 cm diameter by 13 cm deep): soybeans, cotton, alfalfa, corn, rice, wheet, sorghum, velvetleaf (Abutilon theophrasti), sesbania (Sesbania exaltata), Cassia (Cassia tora), morningglory (Ipomoea hederacea), jimsonweed (Datura stramonium), cocklebur (Xanthium pensylvanicum), crabgrass (Digitaria spp.), nutsedge (Cyperus rotundus), barnyardgrass (Echinochloa crusgalli), giant foxtail (Setaria faberii) and wild oats (Avena fatua). The following species were grown in soil in a paper cup (12 cm diameter by 13 cm deep): sunflower, sugarbeets, and mustard. All plants were sprayed approximately 14 days after planting.

Nutsedge [2] = assay: Test F over-the-top soil/foliage treatment; type: in vivo, Cyperus rotundus; set-up: scale not given here; settings: soil/foliage spray, ~14 days
Protocol: as §3, §4

Mustard = assay: Test B pre-emergence on Fallsington silt loam; type: in vivo, Brassica arvensis; settings: 28 days
Description: as §1, §2

Sorghum [3] = assay: Test B pre-emergence on Fallsington silt loam; type: in vivo; settings: 0.03 kg/ha, 28 days
Description: as §1, §2

Barnyardgrass [4] = assay: Test B pre-emergence on Fallsington silt loam; type: in vivo, Echinochloa crusgalli; settings: 0.12 kg/ha, 28 days
Description: as §1, §2

Sorghum [5] = assay: Test F over-the-top soil/foliage treatment; type: in vivo; set-up: scale not given here; settings: soil/foliage spray; 0.06 kg/ha; ~14 days
Protocol: as §3, §4

Alfalfa = assay: Test F over-the-top soil/foliage treatment; type: in vivo; set-up: scale not given here; settings: soil/foliage spray, ~14 days
Protocol: as §3, §4

Wheat [6] = assay: Test F over-the-top soil/foliage treatment; type: in vivo, wheet; set-up: scale not given here; settings: soil/foliage spray, ~14 days
Protocol: as §3, §4

Barnyardgrass [7] = assay: Test F over-the-top soil/foliage treatment; type: in vivo, Echinochloa crusgalli; set-up: scale not given here; settings: soil/foliage spray; 0.06 kg/ha; ~14 days
Protocol: as §3, §4

Ky. bluegrass = assay: Test B pre-emergence on Fallsington silt loam; type: in vivo, Kentucky bluegrass; set-up: scale not given here; settings: 0.12 kg/ha, 28 days
Description: as §1, §2

Cocklebur = assay: Test B pre-emergence on Fallsington silt loam; type: in vivo, Xanthium pensylvanicum; settings: 28 days
Description: as §1, §2

Morningglory [8] = assay: Test F over-the-top soil/foliage treatment; type: in vivo, Ipomoea hederacea; settings: soil/foliage spray; 0.06 kg/ha; ~14 days
Protocol: as §3, §4

Johnsongrass = assay: Test B pre-emergence on Fallsington silt loam; type: in vivo, Sorghum halepense; set-up: scale not given here; settings: 0.12 kg/ha, 28 days
Description: as §1, §2

Crabgrass = assay: Test F over-the-top soil/foliage treatment; type: in vivo, Digitaria spp.; set-up: scale not given here; settings: soil/foliage spray; 0.06 kg/ha; ~14 days
Protocol: as §3, §4

Velvetleaf = assay: Test F over-the-top soil/foliage treatment; type: in vivo, Abutilon theophrasti; settings: soil/foliage spray; 0.015 kg/ha; ~14 days
Protocol: as §3, §4

Corn [9] = assay: Test F over-the-top soil/foliage treatment; type: in vivo; settings: soil/foliage spray; 0.06 kg/ha; ~14 days
Protocol: as §3, §4

Rice = assay: Test F over-the-top soil/foliage treatment; type: in vivo; settings: soil/foliage spray; 0.06 kg/ha; ~14 days
Protocol: as §3, §4

Soybeans = assay: Test F over-the-top soil/foliage treatment; type: in vivo; settings: soil/foliage spray; 0.06 kg/ha; ~14 days
Protocol: as §3, §4

Pigweed = assay: Test B pre-emergence on Fallsington silt loam; type: in vivo, Amaranthus retroflexus; settings: 0.03 kg/ha, 28 days
Description: as §1, §2

Nutsedge [10] = assay: Test B pre-emergence on Fallsington silt loam; type: in vivo, Cyperus rotundus; settings: 0.03 kg/ha, 28 days
Description: as §1, §2

Corn [11] = assay: Test B pre-emergence on Fallsington silt loam; type: in vivo; set-up: scale not given here; settings: 0.12 kg/ha, 28 days
Description: as §1, §2

Wheat [12] = assay: Test B pre-emergence on Fallsington silt loam; type: in vivo; set-up: scale not given here; settings: 0.03 kg/ha, 28 days
Description: as §1, §2

Sugarbeets = assay: Test B pre-emergence on Fallsington silt loam; type: in vivo; set-up: scale not given here; settings: 28 days
Description: as §1, §2

Wild Oats = assay: Test F over-the-top soil/foliage treatment; type: in vivo, Avena fatua; set-up: scale not given here; settings: soil/foliage spray; 0.06 kg/ha; ~14 days
Protocol: as §3, §4

Sesbania = assay: Test F over-the-top soil/foliage treatment; type: in vivo, Sesbania exaltata; set-up: scale not given here; settings: soil/foliage spray, ~14 days
Protocol: as §3, §4

Wheat [13] = assay: Test C pre-emergence on Fallsington silt loam soil; type: in vivo; settings: 0.06 kg/ha, 28 days
Description: The high herbicidal activity of two of the compounds from within the scope of the invention is evident from the results obtained in this test. The experiment concerned pre-emergence applications on soil. The containers used were 25 cm diameter plastic pots filled with Fallsington silt loam. One set of pots was planted to weeds, the seeds of which were uniformly mixed with the top 1.2 cm layer of soil. The species selected were: johnsongrass (Sorghum halepense), barnyardgrass (Echinochloa crusgalli), crabgrass (Digitaria sanguinalis), giant foxtail (Setaria faberii), velvetleaf (Abutilon theophrasti), jimsonweed (Datura stramonium), mustard (Brassica arvensis), and pigweed (Amaranthus retroflexus). Another set of pots were planted to the following crops with from one to four species per pot: corn (planting depth 3.7 cm), cotton, soybeans, sunflower, Clinton oats, wheat, Black Valentine beans, rice, sorghum, peas, flax, and peanuts (all at 2.5 cm depth), cucumbers, cabbage, alfalfa, safflower, sugarbeets, tomato, spinach, barley, and Kentucky bluegrass (all at 1.2 cm depth). Immediately after planting, the test chemical was applied to the soil surfaces dissolved in a non-phytotoxic solvent. One pot from the weed phase and one of each of the crop species were left untreated for the purpose of comparison. The treated and untreated pots were promptly watered with approximatley 4 mm of simultated rainfall and then held in a greenhouse for several weeks. Visual weed and crop response ratings were made 28 days after treatment utilizing the rating system as described above for Test A. The data are given in Table C.

Morningglory [14] = assay: Test B pre-emergence on Fallsington silt loam; type: in vivo, Ipomoea hederacea; settings: 0.03 kg/ha, 28 days
Description: as §1, §2

Giant Foxtail [15] = assay: Test F over-the-top soil/foliage treatment; type: in vivo, Setaria faberii; set-up: scale not given here; settings: soil/foliage spray; 0.06 kg/ha; ~14 days
Protocol: as §3, §4

Which results are given for `COc1cc(C)nc(NC(=O)NS(=O)(=O)c2ccccc2OS(C)(=O)=O)n1` [Compound 2, 2-Hydroxy-N-[(4-methoxy-6-methylpyrimidin-2-yl)aminocarbonyl]benzenesulfonamide, methanesulfonate]?
Giant Foxtail response rating (Giant Foxtail [1]): 10C; Jimsonweed response rating (Jimsonweed): 10C; Nutsedge response rating (Nutsedge [2]; 0.015 kg/ha): 2C; Nutsedge response rating (Nutsedge [2]; 0.06 kg/ha): 10C; Mustard response rating (Mustard; 0.03 kg/ha): 10C; Mustard response rating (Mustard; 0.12 kg/ha): 10C; Sorghum response rating (Sorghum [3]): 10C; Barnyardgrass response rating (Barnyardgrass [4]): 10C; Sorghum response rating (Sorghum [5]): 10C; Alfalfa response rating (Alfalfa; 0.015 kg/ha): 7C; Alfalfa response rating (Alfalfa; 0.06 kg/ha): 10C; Wheat response rating (Wheat [6]; 0.015 kg/ha): 1C; Wheat response rating (Wheat [6]; 0.06 kg/ha): 9C; Barnyardgrass response rating (Barnyardgrass [7]): 10C; Ky. bluegrass response rating (Ky. bluegrass): 10C; Cocklebur response rating (Cocklebur; 0.03 kg/ha): 5G; Cocklebur response rating (Cocklebur; 0.12 kg/ha): 10C; Morningglory response rating (Morningglory [8]): 10C; Johnsongrass response rating (Johnsongrass): 10C; Crabgrass response rating (Crabgrass): 10C; Velvetleaf response rating (Velvetleaf): 5G; Corn response rating (Corn [9]): 10C; Rice response rating (Rice): 10C; Soybeans response rating (Soybeans): 9C; Pigweed response rating (Pigweed): 7G; Nutsedge response rating (Nutsedge [10]): 6G; Corn response rating (Corn [11]): 10C; Wheat response rating (Wheat [12]): 5G; Sugarbeets response rating (Sugarbeets; 0.03 kg/ha): 10C; Sugarbeets response rating (Sugarbeets; 0.12 kg/ha): 10C; Wild Oats response rating (Wild Oats): 10C; Sesbania response rating (Sesbania; 0.015 kg/ha): 9C; Sesbania response rating (Sesbania; 0.06 kg/ha): 10C; Wheat response rating (Wheat [13]): 5G; Morningglory response rating (Morningglory [14]): 7G; Giant Foxtail response rating (Giant Foxtail [15]): 10C
